{"source": "PubChem BioAssay AID342", "about": "(DTP/NCI, 2004)", "test_system": "Swiss mice, Sarcoma 180 sc, mean tumor weight T/C", "assay": "NCI In Vivo Anticancer Drug Screen. Data for tumor model Sarcoma 180 (subcutaneous) in Swiss mice", "settings": "endpoint: mean tumor weight, higher = larger tumour", "method_in_brief": "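Readout is the ratio of treated-group measurement to vehicle-control measurement (T/C), based on survival or tumor size in mice carrying transplanted tumors.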", "note": "Values joined by “and” are separate entries in the source; they are usually repeats but may differ in a detail not shown here. Equal values may be shown once."}
{"smiles": "NC1(C(=O)OCc2ccccc2)CCCC1", "values": [{"measurement": "T/C", "setting": "dose: 50.0 mg/kg/injection, schedule: Q01DX007 (ip), vehicle: carboxymethylcellulose (CMC)", "value": "87 % of control"}, {"measurement": "T/C", "setting": "dose: 100.0 mg/kg/injection, schedule: Q01DX007 (ip), vehicle: carboxymethylcellulose (CMC)", "value": "76 % of control"}, {"measurement": "T/C", "setting": "dose: 200.0 mg/kg/injection, schedule: Q01DX007 (ip), vehicle: carboxymethylcellulose (CMC)", "value": "66 % of control"}, {"measurement": "T/C", "setting": "dose: 333.0 mg/kg/injection, schedule: Q01DX007 (ip), vehicle: carboxymethylcellulose (CMC)", "value": "64 % of control"}, {"measurement": "T/C", "setting": "dose: 400.0 mg/kg/injection, schedule: Q01DX007 (ip), vehicle: carboxymethylcellulose (CMC)", "value": "47 % of control"}, {"measurement": "T/C", "setting": "dose: 500.0 mg/kg/injection, schedule: Q01DX007 (ip), vehicle: carboxymethylcellulose (CMC)", "value": "36 % of control"}, {"measurement": "T/C", "setting": "dose: 750.0 mg/kg/injection, schedule: Q01DX007 (ip), vehicle: carboxymethylcellulose (CMC)", "value": "55 % of control"}, {"measurement": "T/C", "setting": "dose: 800.0 mg/kg/injection, schedule: Q01DX007 (ip), vehicle: carboxymethylcellulose (CMC)", "value": "25 % of control"}]}
{"smiles": "C[C@@H]1C[C@H]2CC[C@H](O2)[C@H](C)C(=O)O[C@@H](C)C[C@@H]2CC[C@@H](O2)[C@@H](C)C(=O)O[C@H](C)C[C@H]2CC[C@H](O2)[C@H](C)C(=O)O[C@@H](C)C[C@@H]2CC[C@@H](O2)[C@@H](C)C(=O)O1", "values": [{"measurement": "T/C", "setting": "dose: 1.25 mg/kg/injection, schedule: Q#A X014 (ip), vehicle: olive oil, sesame oil, peanut oil", "value": "96 % of control"}, {"measurement": "T/C", "setting": "dose: 2.5 mg/kg/injection, schedule: Q#A X014 (ip), vehicle: olive oil, sesame oil, peanut oil", "value": "88 % of control"}, {"measurement": "T/C", "setting": "dose: 5.0 mg/kg/injection, schedule: Q#A X014 (ip), vehicle: olive oil, sesame oil, peanut oil", "value": "90 % of control"}, {"measurement": "T/C", "setting": "dose: 5.0 mg/kg/injection, schedule: Q#A X014 (sc), vehicle: olive oil, sesame oil, peanut oil", "value": "82 % of control"}, {"measurement": "T/C", "setting": "dose: 9.0 mg/kg/injection, schedule: Q#A X014 (ip), vehicle: carboxymethylcellulose (CMC)", "value": "89 % of control"}, {"measurement": "T/C", "setting": "dose: 10.0 mg/kg/injection, schedule: Q#A X014 (ip), vehicle: olive oil, sesame oil, peanut oil", "value": "73 % of control and 83 % of control"}, {"measurement": "T/C", "setting": "dose: 10.0 mg/kg/injection, schedule: Q#A X014 (sc), vehicle: olive oil, sesame oil, peanut oil", "value": "81 % of control"}, {"measurement": "T/C", "setting": "dose: 15.0 mg/kg/injection, schedule: Q#A X014 (sc), vehicle: olive oil, sesame oil, peanut oil", "value": "80 % of control"}, {"measurement": "T/C", "setting": "dose: 18.0 mg/kg/injection, schedule: Q#A X014 (ip), vehicle: carboxymethylcellulose (CMC)", "value": "111 % of control"}, {"measurement": "T/C", "setting": "dose: 20.0 mg/kg/injection, schedule: Q#A X014 (ip), vehicle: carboxymethylcellulose (CMC)", "value": "57 % of control"}, {"measurement": "T/C", "setting": "dose: 25.0 mg/kg/injection, schedule: Q#A X014 (ip), vehicle: carboxymethylcellulose (CMC)", "value": "53 % of control"}, {"measurement": "T/C", "setting": "dose: 25.0 mg/kg/injection, schedule: Q#A X014 (oral), vehicle: methylcellulose (MC)", "value": "77 % of control"}, {"measurement": "T/C", "setting": "dose: 30.0 mg/kg/injection, schedule: Q#A X014 (ip), vehicle: carboxymethylcellulose (CMC)", "value": "89 % of control"}, {"measurement": "T/C", "setting": "dose: 30.0 mg/kg/injection, schedule: Q#A X014 (sc), vehicle: olive oil, sesame oil, peanut oil", "value": "50 % of control"}, {"measurement": "T/C", "setting": "dose: 35.0 mg/kg/injection, schedule: Q#A X014 (ip), vehicle: carboxymethylcellulose (CMC)", "value": "60 % of control"}, {"measurement": "T/C", "setting": "dose: 35.0 mg/kg/injection, schedule: Q#A X014 (sc), vehicle: olive oil, sesame oil, peanut oil", "value": "26 % of control"}, {"measurement": "T/C", "setting": "dose: 40.0 mg/kg/injection, schedule: Q#A X014 (ip), vehicle: carboxymethylcellulose (CMC)", "value": "64 % of control"}, {"measurement": "T/C", "setting": "dose: 40.0 mg/kg/injection, schedule: Q#A X014 (sc), vehicle: olive oil, sesame oil, peanut oil", "value": "32 % of control"}, {"measurement": "T/C", "setting": "dose: 50.0 mg/kg/injection, schedule: Q#A X014 (oral), vehicle: methylcellulose (MC)", "value": "114 % of control"}, {"measurement": "T/C", "setting": "dose: 50.0 mg/kg/injection, schedule: Q#A X014 (sc), vehicle: olive oil, sesame oil, peanut oil", "value": "26 % of control"}, {"measurement": "T/C", "setting": "dose: 54.0 mg/kg/injection, schedule: Q01DX007 (sc), vehicle: methylcellulose (MC)", "value": "106 % of control"}, {"measurement": "T/C", "setting": "dose: 80.0 mg/kg/injection, schedule: Q01DX007 (sc), vehicle: methylcellulose (MC)", "value": "77 % of control"}, {"measurement": "T/C", "setting": "dose: 100.0 mg/kg/injection, schedule: Q#A X014 (oral), vehicle: methylcellulose (MC)", "value": "93 % of control"}, {"measurement": "T/C", "setting": "dose: 108.0 mg/kg/injection, schedule: Q03DX003 (sc), vehicle: methylcellulose (MC)", "value": "71 % of control"}, {"measurement": "T/C", "setting": "dose: 120.0 mg/kg/injection, schedule: Q01DX007 (sc), vehicle: methylcellulose (MC)", "value": "101 % of control"}, {"measurement": "T/C", "setting": "dose: 162.0 mg/kg/injection, schedule: Q03DX003 (sc), vehicle: methylcellulose (MC)", "value": "115 % of control"}, {"measurement": "T/C", "setting": "dose: 180.0 mg/kg/injection, schedule: Q01DX007 (sc), vehicle: methylcellulose (MC)", "value": "100 % of control"}, {"measurement": "T/C", "setting": "dose: 200.0 mg/kg/injection, schedule: Q#A X014 (oral), vehicle: methylcellulose (MC)", "value": "95 % of control"}, {"measurement": "T/C", "setting": "dose: 240.0 mg/kg/injection, schedule: Q03DX003 (sc), vehicle: methylcellulose (MC)", "value": "109 % of control"}, {"measurement": "T/C", "setting": "dose: 360.0 mg/kg/injection, schedule: Q03DX003 (sc), vehicle: methylcellulose (MC)", "value": "102 % of control"}, {"measurement": "T/C", "setting": "dose: 540.0 mg/kg/injection, schedule: Q03DX003 (sc), vehicle: methylcellulose (MC)", "value": "152 % of control"}]}
